Data: ChEMBL document CHEMBL6074653, “Reversal of insulin resistance to combat type 2 diabetes mellitus by newer thiazolidinedione's in fructose induced insulin resistant rats” (Eur J Med Chem, 2024)
Each block holds one compound with its values, some of them ahead of it. Active and inactive are the calls of the source. The calls are words filed in the database; no cut-off is given here.

Columns and labels:
Rattus norvegicus [1] = experiment: Anti-diabetic activity in Wistar rat Diaphragm assessed as […] at 30 mg/kg, po administered for 15 days; format: functional, organism-based; conditions: time 15.0 day
Rattus norvegicus [2] = experiment: Anti-diabetic activity in fructose-treated male Wistar rat assessed as change in HOMO-IR level at 30 mg/kg, po administered for 15 days; format: functional, organism-based; conditions: time 15.0 day
Rattus norvegicus [3] = experiment: Anti-diabetic activity in fructose-treated male Wistar rat assessed as increase in LDL level at 30 mg/kg, po administered for 15 days (reference value: 40.32 +/-1.08 mg/dL); format: functional; conditions: time 15 day
[4] = Acute toxicity in male Wistar rat assessed as change in body weight at 10 mg/kg, po administered for 15 days; format: organism-based; conditions: in vivo, 360 h, time 15 day
[5] = Cmax in male Wistar rat at 30 mg/kg, po measured upto 24 hrs; format: ADME, organism-based; conditions: in vivo
Rattus norvegicus [6] = experiment: Anti-diabetic activity in fructose-treated male Wistar rat assessed as decrease in triglycerides level at 30 mg/kg, po administered for 15 days (reference value: 140.03 +/-3.55 mg/dL); format: functional; conditions: time 15 day
[7] = AUC (0 to t) in male Wistar rat at 30 mg/kg, po measured upto 24 hrs; format: ADME, organism-based; conditions: in vivo
Rattus norvegicus [8] = experiment: Anti-diabetic activity in fructose-treated male Wistar rat assessed as decrease in SGPT level at 30 mg/kg, po administered for 15 days (reference value: […]); format: functional; conditions: time 15 day
Rattus norvegicus [9] = experiment: Anti-diabetic activity in fructose-treated male Wistar rat assessed as increase in glycogen content in liver at 30 mg/kg, po administered for 15 days; format: functional, organism-based; conditions: time 15.0 day
Rattus norvegicus [10] = experiment: Anti-diabetic activity in fructose-treated male Wistar rat assessed as increase in SOD level in liver at 30 mg/kg, po administered for 15 days (reference value: 13.25 +/-1.35 U/ml); format: functional; conditions: time 15 day
Rattus norvegicus [11] = experiment: Anti-diabetic activity in fructose-treated male Wistar rat assessed as increase in total cholesterol level at 30 mg/kg, po administered for 15 days (reference value: 93.68 +/-1.68 mg/dL); format: functional; conditions: time 15 day
Rattus norvegicus [12] = experiment: Anti-diabetic activity in fructose-treated male Wistar rat assessed as decrease in SGOT level at 30 mg/kg, po administered for 15 days (reference value: […]); format: functional; conditions: time 15 day
[13] = molecular target: T1, Peroxisome proliferator-activated receptor gamma (Homo sapiens) (UniProt P37231); experiment: Agonist activity at PPARgamma in human HepG2 cells assessed as increase in PPARgamma transcription factor expression by ELISA analysis; format: cell-based; conditions: filed as agonist, dose 6.25-50 µM
T1 sequence (whole entry): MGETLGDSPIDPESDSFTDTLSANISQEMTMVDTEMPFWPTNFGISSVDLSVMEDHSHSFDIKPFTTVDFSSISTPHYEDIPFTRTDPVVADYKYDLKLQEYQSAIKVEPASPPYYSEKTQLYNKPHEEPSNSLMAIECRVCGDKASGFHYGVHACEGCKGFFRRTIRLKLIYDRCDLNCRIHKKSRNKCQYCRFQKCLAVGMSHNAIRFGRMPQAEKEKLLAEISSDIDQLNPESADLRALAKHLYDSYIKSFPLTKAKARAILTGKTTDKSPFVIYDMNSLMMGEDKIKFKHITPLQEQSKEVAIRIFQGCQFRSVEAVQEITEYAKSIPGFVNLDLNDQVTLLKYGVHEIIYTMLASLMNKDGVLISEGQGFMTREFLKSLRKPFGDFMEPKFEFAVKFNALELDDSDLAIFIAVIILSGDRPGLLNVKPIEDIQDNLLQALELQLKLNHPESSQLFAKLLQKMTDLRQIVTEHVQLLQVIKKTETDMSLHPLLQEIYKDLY

[14] = Drug recovery in rat plasma at 100 mg/kg, po by HPLC analysis; format: ADME, organism-based; conditions: in vivo
[15] = Acute toxicity in male Wistar rat assessed as body weight gain at 10 mg/kg, po administered for 15 days; format: organism-based; conditions: in vivo, 360 h, time 15 day
Rattus norvegicus [16] = experiment: Anti-diabetic activity in fructose-treated male Wistar rat assessed as decrease in insulin level at 30 mg/kg, po administered for 15 days by insulin tolerance test; format: functional, organism-based; conditions: time 15.0 day
Rattus norvegicus [17] = experiment: Anti-diabetic activity in fructose-treated male Wistar rat assessed as steatosis in liver 30 mg/kg, po administered for 15 days by H and E staining based analysis; format: functional, organism-based; conditions: time 15.0 day
[18] = Drug recovery in rat plasma at 150 mg/kg, po by HPLC analysis; format: ADME, organism-based; conditions: in vivo
Rattus norvegicus [19] = experiment: Anti-diabetic activity in fructose-treated male Wistar rat assessed as increase in HDL level at 30 mg/kg, po administered for 15 days (reference value: 25.35 +/-2.03 mg/dL); format: functional; conditions: time 15 day
Rattus norvegicus [20] = experiment: Anti-diabetic activity in fructose-treated male Wistar rat assessed as increase in GSH level in liver at 30 mg/kg, po administered for 15 days (reference value: 39.98 +/-0.86 nM/mg ); format: functional; conditions: time 15 day
Rattus norvegicus [21] = experiment: Anti-diabetic activity in fructose-treated male Wistar rat assessed as ballooning degeneration in liver 30 mg/kg, po administered for 15 days by H and E staining based analysis; format: functional, organism-based; conditions: time 15.0 day
[22] = Half life in male Wistar rat at 30 mg/kg, po measured upto 24 hrs; format: ADME, organism-based; conditions: in vivo
Rattus norvegicus [23] = experiment: Anti-diabetic activity in fructose-treated male Wistar rat assessed as decrease in VLDL level at 30 mg/kg, po administered for 15 days (reference value: 28 +/-0.28 mg/dL); format: functional; conditions: time 15 day
[24] = Tmax in male Wistar rat at 30 mg/kg, po measured upto 24 hrs; format: ADME, organism-based; conditions: in vivo
Rattus norvegicus [25] = experiment: Anti-diabetic activity in fructose-treated male Wistar rat assessed as increase in glycogen content in skeletal muscle at 30 mg/kg, po administered for 15 days; format: functional, organism-based; conditions: time 15.0 day
[26] = Drug recovery in rat plasma at 50 mg/kg, po by HPLC analysis; format: ADME, organism-based; conditions: in vivo
Rattus norvegicus [27] = experiment: Anti-diabetic activity in fructose-treated male Wistar rat assessed as lymphocyte infiltration in liver 30 mg/kg, po administered for 15 days by H and E staining based analysis; format: functional, organism-based; conditions: time 15.0 day
[28] = AUC (0 to infinity) in male Wistar rat at 30 mg/kg, po measured upto 24 hrs; format: ADME, organism-based; conditions: in vivo
Rattus norvegicus [29] = experiment: Anti-diabetic activity in fructose-treated male Wistar rat assessed as increase in CAT level in liver at 30 mg/kg, po administered for 15 days (reference value: 27.65 +/-1.02 U/min); format: functional; conditions: time 15 day
Rattus norvegicus [30] = experiment: Anti-diabetic activity in fructose-treated male Wistar rat assessed as decrease in fasting blood glucose level at 30 mg/kg, po administered for 15 days; format: functional, organism-based; conditions: time 15.0 day
L6 = experiment: Induction of glucose uptake in rat L6 cells incubated for 24 hrs by GOD-POD technique; format: functional; parameters: concentration or dose not given beside the values
[31] = Retention time of the compound by HPLC analysis; format: physicochemical
Rattus norvegicus [32] = experiment: Anti-diabetic activity in fructose-treated male Wistar rat assessed as kupffer cell hyperplasia in liver 30 mg/kg, po administered for 15 days by H and E staining based analysis; format: functional, organism-based; conditions: time 15.0 day
Rattus norvegicus [33] = experiment: Anti-diabetic activity in fructose-treated male Wistar rat assessed as sinusoidal congestion in liver 30 mg/kg, po administered for 15 days by H and E staining based analysis; format: functional, organism-based; conditions: time 15.0 day
Rattus norvegicus [34] = experiment: Anti-diabetic activity in fructose-treated male Wistar rat assessed as decrease in MDA level in liver at 30 mg/kg, po administered for 15 days (reference value: 294.65 +/-11.78 nM/mg ); format: functional; conditions: time 15 day
Rattus norvegicus [35] = experiment: Anti-diabetic activity in fructose-treated male Wistar rat assessed as decrease in adipocyte count 30 mg/kg, po administered for 15 days by H and E staining based analysis; format: functional, organism-based; conditions: time 15.0 day
Rattus norvegicus [36] = experiment: Anti-diabetic activity in fructose-treated male Wistar rat assessed as increase in HOMO-IR level at 30 mg/kg, po administered for 15 days; format: functional, organism-based; conditions: time 15.0 day
[37] = molecular target: T1, Peroxisome proliferator-activated receptor gamma (Homo sapiens); experiment: Agonist activity at Gal4-fused human PPARgamma transfected in African green monkey CV-1 cells assessed as receptor transactivation incubated for 24 hrs by luciferase based assay relative to control; format: cell-based

Structure (SMILES): N#C[C@H]1CCCN1C(=O)CN1C(=O)S/C(=C\c2ccc(O)cc2)C1=O
Activity (Rattus norvegicus [1]): Active
Activity (Rattus norvegicus [2]): Active
Activity (Rattus norvegicus [3]): 47.8 mg/dL
Activity [4]: Non-toxic
Cmax [5]: 1030 ng/mL
Activity (Rattus norvegicus [6]): 76.18 mg/dL
AUC(0-t) at 24 h [7]: 5980 ng·h/mL
Activity (Rattus norvegicus [8]): 37.12 U/L
Activity (Rattus norvegicus [9]): Active
Activity (Rattus norvegicus [10]): 24.68 U/ml
Activity (Rattus norvegicus [11]): 114.79 mg/dL
Activity (Rattus norvegicus [12]): 41.32 U/L
Activity [13]: Dose-dependent-effect
Drug recovery [14]: 101%
Activity [15]: Non-toxic
Activity (Rattus norvegicus [16]): Active
Activity (Rattus norvegicus [17]): Active
Drug recovery [18]: 96.1%
Activity (Rattus norvegicus [19]): 53.25 mg/dL
Activity (Rattus norvegicus [20]): 61.35 nM/mg
Activity (Rattus norvegicus [21]): Active
half-life [22]: 4.21 h
Activity (Rattus norvegicus [23]): 15.23 mg/dL
Tmax [24]: 2.21 h
Activity (Rattus norvegicus [25]): Active
Drug recovery [26]: 97.1%
Activity (Rattus norvegicus [27]): Active
AUC(0-inf) [28]: 6620 ng·h/mL
Activity (Rattus norvegicus [29]): 52.36 U/min
Activity (Rattus norvegicus [30]): Active
Activity (L6): 79.29%
Retention_time [31]: 4.4 min
Activity (Rattus norvegicus [32]): Active
Activity (Rattus norvegicus [33]): Active
Activity (Rattus norvegicus [34]): 197.32 nM/mg
Activity (Rattus norvegicus [35]): Active

Structure (SMILES): N#C[C@H]1CCCN1C(=O)CN1C(=O)S/C(=C\c2ccccc2)C1=O
Activity (L6): 63.23%

Structure (SMILES): N#C[C@H]1CCCN1C(=O)CN1C(=O)S/C(=C\c2ccc(F)cc2)C1=O
Activity (Rattus norvegicus [1]): Active
Activity (Rattus norvegicus [3]): 42.74 mg/dL
Activity [4]: Non-toxic
Cmax [5]: 926 ng/mL
Activity (Rattus norvegicus [6]): 86.15 mg/dL
AUC(0-t) at 24 h [7]: 5620 ng·h/mL
Activity (Rattus norvegicus [8]): 39.72 U/L
Activity (Rattus norvegicus [9]): Active
Activity (Rattus norvegicus [10]): 20.36 U/ml
Activity (Rattus norvegicus [11]): 112.3 mg/dL
Activity (Rattus norvegicus [12]): 46.36 U/L
Activity [13]: Dose-dependent-effect
Drug recovery [14]: 99.58%
Activity [15]: Non-toxic
Activity (Rattus norvegicus [16]): Active
Activity (Rattus norvegicus [17]): Active
Drug recovery [18]: 98.36%
Activity (Rattus norvegicus [19]): 51.39 mg/dL
Activity (Rattus norvegicus [20]): 58.63 nM/mg
Activity (Rattus norvegicus [21]): Active
half-life [22]: 3.96 h
Activity (Rattus norvegicus [23]): 17.23 mg/dL
Tmax [24]: 2 h
Activity (Rattus norvegicus [25]): Active
Activity (Rattus norvegicus [36]): Active
Drug recovery [26]: 99.96%
Activity (Rattus norvegicus [27]): Active
AUC(0-inf) [28]: 6240 ng·h/mL
Activity (Rattus norvegicus [29]): 48.65 U/min
Activity (Rattus norvegicus [30]): Active
Activity (L6): 74.58%
Retention_time [31]: 6.7 min
Activity (Rattus norvegicus [32]): Active
Activity (Rattus norvegicus [33]): Active
Activity (Rattus norvegicus [34]): 224.65 nM/mg
Activity (Rattus norvegicus [35]): Active

Structure (SMILES): Cc1ccc(/C=C2\SC(=O)N(CC(=O)N3CCC[C@@H]3C#N)C2=O)cc1
Activity (L6): 64.57%

Structure (SMILES): COc1ccc(/C=C2\SC(=O)N(CC(=O)N3CCC[C@@H]3C#N)C2=O)cc1OC
Activity (L6): 64.56%

Structure (SMILES): COc1cc(/C=C2\SC(=O)N(CC(=O)N3CCC[C@@H]3C#N)C2=O)cc(OC)c1OC
Activity (L6): 69.74%

Activity [37]: 21.2%
Structure (SMILES): O=C1NC(=O)C(Cc2ccc(OCc3cccc(Br)c3)cc2)S1 (stereo unspecified)

Structure (SMILES): N#C[C@H]1CCCN1C(=O)CN1C(=O)S/C(=C\c2ccccc2O)C1=O
Activity (L6): 72.86%

Structure (SMILES): COc1ccc(/C=C2\SC(=O)N(CC(=O)N3CCC[C@@H]3C#N)C2=O)cc1
Activity (L6): 58.66%

Structure (SMILES): N#C[C@H]1CCCN1C(=O)CN1C(=O)S/C(=C\c2ccco2)C1=O
Activity (L6): 57.4%

Structure (SMILES): CN(C)c1ccc(/C=C2\SC(=O)N(CC(=O)N3CCC[C@@H]3C#N)C2=O)cc1
Activity (L6): 64.18%
